Reference: patent publication US5340801A, “Compounds having cholecystokinin and gastrin antagonistic properties” (Rhone-Poulenc Rorer Pharmaceuticals Inc., priority 1991, dated 1994)
*1 amine or outer side, *2 acyl side, *3 side chain or, on linkers, in order; H or OH if unused. Where a SMILES comes first, the peptide text is derived from it. [ ]: non-standard residue; d: D form. The star is where a group is joined. Hyp = O=C(O)[C@@H]1C[C@@H](O)CN1; βNA = c1ccc2cc(N*)ccc2c1; 2Abz = Nc1ccccc1C(=O)O; CO = O=C([*:1])[*:2]; Bn = c1ccc(C*)cc1

Experiments:
[1] = target: T1, CCK-A receptor (Rattus norvegicus, UniProt P30551); assay: CCK-A Receptor Binding Assay; conditions: rat pancreas membranes, displacement of 3H-L-364,718 (0.2 nM), 37° C., 30 minutes; read-out: IC50 CCK-A (In Vitro Binding Data)
T1 construct: from tissue; host or cells: rat (Sprague-Dawley) pancreas membrane homogenate
T1 sequence (P30551 1-444): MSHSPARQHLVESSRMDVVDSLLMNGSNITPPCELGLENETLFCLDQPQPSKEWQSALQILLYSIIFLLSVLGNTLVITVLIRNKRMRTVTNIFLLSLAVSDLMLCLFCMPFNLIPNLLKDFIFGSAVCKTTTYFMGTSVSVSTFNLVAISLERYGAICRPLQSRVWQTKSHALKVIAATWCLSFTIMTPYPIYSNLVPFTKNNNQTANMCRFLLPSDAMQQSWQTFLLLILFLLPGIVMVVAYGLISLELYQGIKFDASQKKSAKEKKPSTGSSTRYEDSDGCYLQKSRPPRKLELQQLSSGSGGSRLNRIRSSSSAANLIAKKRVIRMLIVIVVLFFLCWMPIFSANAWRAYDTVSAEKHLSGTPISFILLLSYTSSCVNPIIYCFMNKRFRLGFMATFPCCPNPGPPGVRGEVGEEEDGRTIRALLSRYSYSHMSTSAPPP
From the text: (§1) The effectiveness of the compounds of this invention as gastrin or cholecystokinin antagonists may be determined by the following pharmacologic tests which evaluate the gastrin and cholecystokinin antagonist activity of said compounds. The CCK-A Receptor Binding Assay and the Gastrin Receptor Binding Assay are standard test procedures. The CCK-A Receptor Binding Assay is essentially that of Chang, et al., "Characterization of the Binding of [^3 H]-(±)-L-364,718: A New Potent, Nonpeptide Cholecystokinin Antagonist Radioligand Selective for Peripheral Receptors", Molecular Pharmacology, 30: 212-217 (1986). The Gastrin Receptor Binding Assay is essentially that of Chang, et al., "Characterization of [^3 H]Pentagastrin Binding in Guinea Pig Gastric Glands - An Alternative Convenient Ligand for Receptor Binding Assay", Biochemical and Biophysical Research Communications, 134 (2): 895-899 (1986).
CCK-A Receptor Binding Assay
Wash Buffer (for use with Brandel Cell Harvester):
30 liters (L) of 50 mM Tris, pH 7.7: Dissolve 1 81.7 g Tris base in 4 L deionized water at room temperature. Adjust pH to 7.7 with 6N HCl and Q.S. to 30 L.
50 mM Tris-Cl, 5 mM MgCl2, 5 mM dithiothreitol, 0.14 mg/ml bacitracin, and 2 mg/ml bovine serum albumin (BSA).
1 liter of 5X stock buffer:
30.28 g Tris base per 800 ml deionized water, 5.08 g MgCl2 ·6H20, pH to 7.7 at room temperature with 6N HCl and Q.S. to 1 liter, store at 4° C.
250 ml working buffer (kept on ice):
50 ml of 5X stock buffer 0.1928 g dithiothreitol (5 mM), 35 mg bacitracin (0.14 mg/ml), and 0.5 g BSA (2mg/ml).
Unlabeled L-364,718 (nonpeptide ligand):
Unlabeled L-364,718 (N-(2,3-dihydro-1-methyl-2-oxo-5-phenyl-1H-1,4-benzodiazepin-3-yl)-1H-indole-2-carboxamide) (300 nM final concentration) is used to define nonspecific binding. A […] solution is made in absolute ethanol and stored at -70° C. Aliquots are diluted 100-fold in the assay.
A Sprague-Dawley rat is sacrificed by asphyxiation with carbon dioxide and the pancreas removed. The tissue is immersed in cold wash buffer and carefully trimmed of fat, connective tissue, blood vessels, blotted and weighed. The tissue is homogenized in a Sorvall SS-34 centrifuge tube in 50 volumes of wash buffer using a Polytron at setting 7 for 15 seconds. The tissue is centrifuged (Sorvall SS-34) at 19,000 rpm for 10 min. The supernatant is poured off and the pellet resuspended in sufficient buffer to obtain a concentration of 40 mg tissue wet weight/mi. Separate aliquots (2.3ml) are placed in each of 8 centrifuge tubes and centrifuged as before. The supernatants are poured off and the pellets stored at -70° C. Stored pellets are sufficient for the assay of 160 tubes and are stable for 1-2 months.
During the assay the stored membranes are resuspended in 40 ml of assay buffer by scraping the pellet off the wall of the centrifuge tube and washing it into a teflon-glass homogenizer. Membranes are resuspended by 5 passes with the teflon pestle and the membranes stored on ice until ready for use.
Preparation of Compounds:
Compounds of the present invention to be tested are prepared in DMSO (dimethyl sulfoxide) or in assay buffer. The majority of compounds of the present invention active as CCK antagonists generally require DMSO for complete solubility. Approximately 2-3 mg of compound is weighed directly into a 13×100 mm test tube and sufficient DMSO added to obtain a working stock solution at a concentration 100 fold greater than the highest concentration being tested in the assay. A total of 10 μl of each concentration of drug is added into a final volume of 1 ml to yield a 100 fold dilution of the working stock solution. Control binding tubes ("totals and nonspecifics") are also treated with 10 μl DMSO.
^3 H-L-364,718 is obtained from New England Nuclear (Cat. #971) and is used as supplied. […]

[2] = target: T2, gastrin receptor (Cavia porcellus, UniProt H0VZC5); assay: Gastrin Receptor Binding Assay; conditions: guinea pig gastric glands, displacement of 125I-(Leu-15)-Gastrin, 25° C., 30 minutes; read-out: IC50 Gastrin (In Vitro Binding Data)
T2 construct: The fundic mucosa is gently scraped off the submucosa; from tissue; host or cells: guinea pig (Hartley) fundic mucosa gastric glands, collagenase-dispersed
T2 sequence (H0VZC5 1-426): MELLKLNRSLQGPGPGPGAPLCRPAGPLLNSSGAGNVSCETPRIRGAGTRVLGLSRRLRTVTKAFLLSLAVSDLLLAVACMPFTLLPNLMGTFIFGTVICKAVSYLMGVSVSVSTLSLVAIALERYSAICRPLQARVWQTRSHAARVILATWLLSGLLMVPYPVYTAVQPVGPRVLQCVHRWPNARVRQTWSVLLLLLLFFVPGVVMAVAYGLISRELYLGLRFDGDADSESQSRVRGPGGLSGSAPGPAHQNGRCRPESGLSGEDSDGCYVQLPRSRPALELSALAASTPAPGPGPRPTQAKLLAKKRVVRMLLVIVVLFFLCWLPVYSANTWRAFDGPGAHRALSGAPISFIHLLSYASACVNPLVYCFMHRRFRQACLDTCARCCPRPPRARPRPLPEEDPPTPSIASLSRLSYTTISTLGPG
From the text: as §1
Gastrin Receptor Binding Assay
Phosphate Buffered Saline (PBS): 8.743 g NaCl, 523 mg K2 HPO4 and 76.8 mg NaH2 PO4 is dissolved in 900 ml of deionized water, the pH of the solution is adjusted to 7.3 with 5N NaOH, then Q.S. to 1 L.
Buffer A: Powdered Basal Medium Eagle (BME) containing Earle's Salts, L-glutamine and 25 mM HEPES without bicarbonate (Sigma Cat. number B 4391) sufficient to make 3 liters is stirred into 2.7 L of deionized water, […] sodium bicarbonate is added and the mixture stirred to give dissolution. The solution is then equilibrated with 95% O2 /5% CO2 gas followed by titration to a pH of 7.4 with NaOH, then Q.S. to 3 L.
Buffer B: 18.75 mg of collagenase A and 25 mg of pH neutralized BSA is dissolved in 25 ml of Buffer A.
Buffer C: 0.3 g of BSA is dissolved in 300 ml of Buffer A.
Buffer D: 6.25 mg Bacitracin is dissolved in 25 ml of Buffer A.
A guinea pig (Hartley Strain) weighing 150-200 grams, is sacrificed by CO2 asphyxiation and the stomach immediately excised, cut along the greater curvature, cleaned out and immediately immersed in a beaker containing cold PBS, pH 7.3, to insure thorough cleaning. The fundic mucosa is gently scraped off the submucosa and added to a preweighed 50 ml plastic centrifuge tube containing 30 ml of cold Buffer A. The weight of the plastic centrifuge tube containing the buffer is then subtracted from the combined weight of the mucosa and the buffer-containing tube to give the weight of the mucosa. The weight of the mucosa thus determined is recorded for later calculations. The mucosa is then washed twice in Buffer A. After the final wash, the tissue is minced and is placed in a 100-ml glass beaker containing about 1.0 ml of Buffer A, and washed twice again by repeated centrifugation at 50Xg for 5 minutes each and aspiration of supernatant. The washed tissue fragments are then added to a glass Erlenmeyer flask containing 25 ml of Buffer B and incubated in a Dubnoff shaking water bath at 37° C. for 30 minutes in a 95% O2 /5% CO2 atmosphere. After the incubation, the digested tissue fragments in the Collegenase-buffer solution are triturated, filtered through a 200-micron nylon mesh and centrifuged at 50Xg for 5 minutes. The supernatant is aspirated and discarded, the tissue washed 2X in Buffer C, resuspended in same buffer, incubated in a 37° C water bath in an atmosphere of 95% O2 /5% CO2 for 5 minutes, and centrifuged. The pelleted glands are suspended in Buffer D at a desired concentration of 2×10^5 glands/ml to use in the receptor binding assay.
Assay Buffer: Buffer A as above
^125 l-(Leu-15)-Gastrin: 100 microcurie dissolved in 2.0 ml of Buffer A to make 50 microcurie/ml; stored in 50 μl aliquots under Argon at -70° C.
^125 I-(15-methionine)-Human Gastrin: 50 microcurie/ml in deionized water, stored in 50 μl aliquots as above.
(Leu 15)-Gastrin 17:5.2 mg of (Leu-15)- Gastrin is dissolved in 10 ml of Buffer A and stored in 30 μl aliquots. At the time of assay a 1:10 dilution is made and 10 μl/assay tube is used. […]

SMILES	IC50 [1]	IC50 [2]
Cc1cccc(NC(=O)N2C[C@H](OCc3ccccc3)C[C@H]2C(=O)N2CCc3c([nH]c4ccccc34)C2)c1 [Example 1, 2-[(N-(3-methyl)phenylcarbamoyl-4(R)-benzyloxy)-L-prolyl]-1,2,3,4-tetrahydro-9H-pyrido[3,4-b]indole]	9 µM	> 300 µM
COc1ccc(NC(=O)N2C[C@H](OCc3ccccc3)C[C@H]2C(=O)N2CCc3c([nH]c4ccccc34)C2)cc1 [Example 2, 2-[(N-(4-methoxy)phenylcarbamoyl-4(R)-benzyloxy)-L-prolyl]-1,2,3,4-tetrahydro-9H-pyrido[3,4-b]indole]	15 µM	120 µM
Cc1cccc(NC(=O)N2c3ccccc3C[C@H]2C(=O)N2CCc3c([nH]c4ccccc34)C2)c1 [Example 3, 2-[(N-(3-methyl)phenylcarbamoylindolin-2(S)-yl)carbonyl]-1,2,3,4-tetrahydro-9H-pyrido[3,4-b]indole]	30 µM	> 300 µM
O=C([C@H]1CCCN1C(=O)Nc1ccc2ccccc2c1)N1CCc2c([nH]c3ccccc23)C1 [Example 4, 2-(N-naphth-2-ylcarbamoyl-D-prolyl)-1,2,3,4-tetrahydro-9H-pyrido[3,4-b]indole]	7.3 µM	10.3 µM
Cc1cccc(NC(=O)N2CCC[C@@H]2C(=O)N2CCc3c([nH]c4ccccc34)C2)c1 [Example 5, 2-[N-(3-methyl)phenylcarbamoyl-D-prolyl]-1,2,3,4-tetrahydro-9H-pyrido[3,4-b]indole]	37 µM	> 30 µM

Second part, the compound after the results:

IC50 [1]	IC50 [2]	SMILES
37 µM	> 30 µM	Cc1cccc(NC(=O)N2CCC[C@H]2C(=O)N2CCc3c([nH]c4ccccc34)C2)c1 [Example 6, 2-[N-(3-methyl)phenylcarbamoyl-L-prolyl]-1,2,3,4-tetrahydro-9H-pyrido[3,4-b]indole]
3 µM	2.6 µM	Cc1cccc(NC(=O)N2C[C@H](OCc3ccccc3)C[C@H]2C(=O)N[C@H](CC(C)C)C(=O)N[C@H](CC(=O)O)C(N)=O)c1 [Example 7]
–	0.13 µM	O=C(O)c1ccccc1NC(=O)[C@@H]1CCCN1C(=O)[C@@H]1C[C@@H](OCc2ccccc2)CN1C(=O)Nc1ccc2ccccc2c1 [Example 9, 2-[(N-(4(R)-benzyloxy-N-naphth-2-ylcarbamoyl-L-prolyl)-L-prolyl)amino]benzoic acid] ({βNA-CO}-[Hyp](Bn)-Pro-[2Abz]-OH)
–	0.2 µM	O=C(O)c1ccccc1NC(=O)[C@@H]1CCCN1C(=O)[C@@H]1C[C@@H](OCc2ccccc2)CN1C(=O)Nc1cccc2ccccc12 [Example 11, 2-[(N-(4(R)benzyloxy-N-naphth-1-ylcarbamoyl-L-prolyl)-L-prolyl)amino]benzoic acid]
